# Assay results from patent publication US20180050993A1, “NOVEL FLUORINATED DERIVATIVES AS EGFR INHIBITORS USEFUL FOR TREATING CANCERS” (Trillium Therapeutics Inc., priority 2015, published 2018).
# Counter-ions that a name gives are not always drawn. Like-named read-outs stand apart in the source and are kept apart here.
# Tests used:
# [1] = target: T1, EPHA6 (Homo sapiens, UniProt Q9UF33); experiment: Kinome screen at 300 nM (qPCR competition binding); design: purchased DiscoveRx; host or cells: E. coli BL21-derived (T7 phage) or HEK-293; conditions: result in words
# T1 sequence (Q9UF33 23-1036): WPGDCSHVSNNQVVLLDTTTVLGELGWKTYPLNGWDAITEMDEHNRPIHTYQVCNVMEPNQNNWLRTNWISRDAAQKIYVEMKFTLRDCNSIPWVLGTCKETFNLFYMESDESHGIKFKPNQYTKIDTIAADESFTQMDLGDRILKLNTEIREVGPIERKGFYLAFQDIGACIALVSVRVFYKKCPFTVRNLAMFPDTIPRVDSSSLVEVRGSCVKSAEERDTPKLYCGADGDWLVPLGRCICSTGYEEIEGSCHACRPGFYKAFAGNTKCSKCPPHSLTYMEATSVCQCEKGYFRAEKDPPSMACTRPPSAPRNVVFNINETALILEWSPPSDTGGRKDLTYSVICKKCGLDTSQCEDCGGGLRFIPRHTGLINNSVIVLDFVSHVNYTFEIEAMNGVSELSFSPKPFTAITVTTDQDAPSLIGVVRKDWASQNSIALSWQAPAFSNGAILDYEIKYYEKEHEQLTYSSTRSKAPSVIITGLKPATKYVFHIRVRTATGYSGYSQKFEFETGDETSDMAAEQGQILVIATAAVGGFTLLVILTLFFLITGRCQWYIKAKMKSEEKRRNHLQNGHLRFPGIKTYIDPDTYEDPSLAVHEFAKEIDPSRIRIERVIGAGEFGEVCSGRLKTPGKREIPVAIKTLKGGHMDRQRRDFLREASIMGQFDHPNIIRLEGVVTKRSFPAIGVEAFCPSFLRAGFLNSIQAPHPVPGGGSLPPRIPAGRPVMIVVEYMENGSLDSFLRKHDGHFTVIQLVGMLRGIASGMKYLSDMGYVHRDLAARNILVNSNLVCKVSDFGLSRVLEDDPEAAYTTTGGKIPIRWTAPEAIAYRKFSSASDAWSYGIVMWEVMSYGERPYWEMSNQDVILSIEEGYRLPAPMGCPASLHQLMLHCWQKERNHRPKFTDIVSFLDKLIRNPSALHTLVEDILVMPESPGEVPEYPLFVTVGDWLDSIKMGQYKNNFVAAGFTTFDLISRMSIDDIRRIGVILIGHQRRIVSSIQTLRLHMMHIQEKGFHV
# [2] = test system: SK-MEL-2; experiment: NCI screening panel, growth %; type: cell-based, human; conditions: Melanoma
# Description: (§1) After 24 h, two plates of each cell line are fixed in situ with TCA, to represent a measurement of the cell population for each cell line at the time of drug addition (Tz). Experimental drugs are solubilised in dimethyl sulfoxide at 400-fold the desired final maximum test concentration and stored frozen prior to use. At the time of drug addition, an aliquot of frozen concentrate is thawed and diluted to twice the desired final maximum test concentration with complete medium containing 50 μg/ml gentamicin. Additional four, 10-fold or log serial dilutions are made to provide a total of five drug concentrations plus control. Aliquots of 100 μl of these different drug dilutions are added to the appropriate microtiter wells already containing 100 μl of medium, resulting in the required final drug concentrations.
# (§2) Following drug addition, the plates are incubated for an additional 48 h at 37° C., 5% CO2, 95% air, and 100% relative humidity. For adherent cells, the assay is terminated by the addition of cold TCA (trichloroacetic acid). Cells are fixed in situ by the gentle addition of 50 μl of cold 50% (w/v) TCA (final concentration, 10% TCA) and incubated for 60 minutes at 4° C. The supernatant is discarded, and the plates are washed five times with tap water and air dried. Sulforhodamine B (SRB) solution (100 μl) at 0.4% (w/v) in 1% acetic acid is added to each well, and plates are incubated for 10 minutes at room temperature. After staining, unbound dye is removed by washing five times with 1% acetic acid and the plates are air dried. Bound stain is subsequently solubilised with 10 mM trizma base, and the absorbance is read on an automated plate reader at a wavelength of 515 nm. For suspension cells, the methodology is the same except that the assay is terminated by fixing settled cells at the bottom of the wells by gently adding 50 μl of 80% TCA (final concentration, 16% TCA). Using the seven absorbance measurements [time zero, […], control growth, (C), and test growth in the presence of drug at the five concentration levels (Ti)], the percentage growth is calculated at each of the drug concentration levels. Percentage growth inhibition is calculated as: [(Ti−Tz)/(C−Tz)]×100 for concentrations in which Ti>/=Tz and [(Ti−Tz)/Tz]×100 for concentrations in which Ti<Tz.
# (§3) Three dose response parameters are calculated for each experimental agent. […] The drug concentration resulting in total growth inhibition (TGI) is calculated from Ti=Tz. […] Values are calculated for each of these three parameters if the level of activity is reached. However, if the effect is not reached or is exceeded, the value for that parameter is expressed as greater or less than the maximum or minimum concentration tested.
# [3] = test system: IGROV1; experiment: NCI screening panel, growth %; type: cell-based, human; conditions: Ovarian
# Description: as §1, §2, §3
# [4] = test system: T-47D; experiment: NCI screening panel, growth %; type: cell-based, human; conditions: Breast
# Description: as §1, §2, §3
# [5] = test system: A498; experiment: NCI screening panel, growth %; type: cell-based, human; conditions: Renal
# Description: as §1, §2, §3
# [6] = test system: 786-0; experiment: NCI screening panel, growth %; type: cell-based, human; conditions: Renal
# Description: as §1, §2, §3
# [7] = test system: LOX IMVI; experiment: NCI screening panel, growth %; type: cell-based, human; conditions: Melanoma
# Description: as §1, §2, §3
# [8] = test system: M14; experiment: NCI screening panel, growth %; type: cell-based, human; conditions: Melanoma
# Description: as §1, §2, §3
# [9] = test system: MOLT-4; experiment: NCI screening panel, growth %; type: cell-based, human; conditions: Leukemia
# Description: as §1, §2, §3
# [10] = test system: UACC-257; experiment: NCI screening panel, growth %; type: cell-based, human; conditions: Melanoma
# Description: as §1, §2, §3
# [11] = test system: OVCAR-8; experiment: NCI screening panel, growth %; type: cell-based, human; conditions: Ovarian
# Description: as §1, §2, §3
# [12] = test system: SN12C; experiment: NCI screening panel, growth %; type: cell-based, human; conditions: Renal
# Description: as §1, §2, §3
# [13] = test system: PC-3; experiment: NCI screening panel, growth %; type: cell-based, human; conditions: Prostate
# Description: as §1, §2, §3
# [14] = test system: SR; experiment: NCI screening panel, growth %; type: cell-based, human; conditions: Leukemia
# Description: as §1, §2, §3
# [15] = test system: HCT-116; experiment: NCI screening panel, growth %; type: cell-based, human; conditions: Colon
# Description: as §1, §2, §3
# [16] = Brain and plasma concentrations after oral gavage in rat, sampling to 4 hours (Table 4); type: in vivo; conditions: Table 4 (4 hours); for Kp at 4 h: brain/plasma, po, 50 mg/kg
# [17] = male, Sprague-Dawley (SD), brain tissue, PO 50 mg/kg
smiles,measurement,setting,value
"Fc1ccc(Nc2ncnc3cc(OCCOC(F)F)c(OCCOC(F)F)cc23)c(F)c1Cl [Compound 2D•HCl, N-(3-chloro-2,4-difluoro-phenyl)-6,7-bis[2-(difluoromethoxy)ethoxy]quinazolin-4-amine]","selectivity over erlotinib for the ephrin receptor kinase, EPHA6",[1],did show selectivity over erlotinib
same,Growth %,[2],79.82%
same,Growth %,[3],6.79%
same,Growth %,[4],19.78%
same,Growth %,[5],13.11%
same,Growth %,[6],60.48%
same,Growth %,[7],52.34%
same,Growth %,[8],59.47%
same,Growth %,[9],55.03%
same,Growth %,[10],87.43%
same,Growth %,[11],69.11%
same,Growth %,[12],59.26%
same,Growth %,[13],65.70%
same,Growth %,[14],75.96%
same,Growth %,[15],81.03%
same,AUClast,"[16]; brain tissue, PO 50 mg/kg",25272 ng·h/g
same,Cmax,[16]; [17],8040 ng/g
same,Tmax,[16]; [17],4 h
same,Kp at 4 h,"[16]; male, Sprague-Dawley (SD), read-out: AUCLast Ratio (Brain/Plasma)",2.05
same,Kp at 4 h,"[16]; male, Sprague-Dawley (SD), read-out: Cmax Ratio (Brain/Plasma)",2.01
